{"source": "patent US9012655B2", "about": "“Antimicrobial/adjuvant compounds and methods” (Denouamed, Inc., priority 2011, dated 2015)", "key": {"AcpS enzyme": {"molecular_target": "AcpS enzyme (Escherichia coli, UniProt P24224)", "sequence (P24224 whole entry)": "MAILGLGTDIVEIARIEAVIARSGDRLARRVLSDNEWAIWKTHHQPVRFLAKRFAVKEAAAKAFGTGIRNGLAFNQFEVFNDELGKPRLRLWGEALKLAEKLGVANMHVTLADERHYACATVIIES", "assay": "Measurement of AcpS inhibition ([3H]acetyl-CoA incorporation into apo-ACP)", "type": "biochemical", "settings": "% activity vs blank-subtracted counts; for activity at 50 µM / % AcpS activity at 50 uM: test compound 50 uM; for remaining activity at 500 µM / % AcpS activity @ 500 uM: test compound 500 uM", "description": "[^3H]Acetyl-CoA was mixed as 1 volume of Perkin Elmer NET290 radiolabeled stock (e.g. 0.1 mCi/ml, 3.7 Ci/mmol in Na-acetate, pH 4.5-5.0=27 μM) with 1.2 volumes of 1 mM unlabelled acetyl-CoA (Sigma). Trichloroacetic acid was prepared as a 10% w/v solution. Bovine serum albumin was prepared as a 25 mg/ml solution in water. DTT was prepared as a 50 mM solution in water.\n• 1. A standard reaction contained the following in a total volume of 10 μl:\n• 2. Tubes were incubated at RT. [^3H]acetyl-CoA was added last to start the reaction. To stop the reaction, 2 μl was removed to a 1.5-ml microfuge tube containing 800 μl cold 10% TCA. Up to four time points were collected for each reaction, e.g. at 5 min, 10 min, 30 min, and 60 min. • 3. 20 μl of 25 mg/ml BSA was added to each tube, mixed and incubated on ice for 10 min, then centrifuged at 12,000 g for 5 min to form a pellet. Supernatant was removed using P1000. • 4. Each pellet was washed twice with 800 μl of cold 10% TCA each time, then centrifuged at 12,000 g for 5 min after each wash. The supernatant was discarded. Each pellet was resuspended in 50 μl of formic acid. The suspension was transferred to a scintillation vial and radioactivity was measured in 2 ml of liquid scintillation cocktail.\nThe random (stochastic) error in scintillation counting is proportional to the square root of the counts (not dpm) accumulated in the counting period; i.e. 10% for 100, 3.3% for 1,000, 1% for 10,000, etc. Provided radioactive counts (dpm) are in the thousands, the assay provides useful data. Results are reported in terms of % activity with respect to the blank-subtracted counts for working substrate. A % activity of less than about 40% is indicative of AcpS enzyme inhibition by the test compound at that concentration."}, "[1]": {"tested_on": "Methicillin-Resistant Staph. aureus (MRSA)", "assay": "MIC, NCCLS M7-A6 broth microdilution, MRSA", "type": "cell-based", "settings": "16 to 20 h, 35 degrees Celsius; for MIC: Staphylococcus aureus, MRSA", "description": "(§1) Susceptibilities to the compounds were determined using the National Committee for Clinical Laboratory Standards (NCCLS) M7-A6 broth microdilution method. Cation-adjusted Mueller-Hinton broth (Ca^2+, 25 μg/mL; Mg^2+, 12.5 μg/mL) microdilution panels were prepared to contain antimicrobial doubling dilution concentrations of an appropriate range. DMSO (dimethylsulfoxide) controls were incorporated into the panel to mimic the quantity of DMSO used in dissolving some of the compounds at the higher concentrations. Each final panel well volume was 100 μL with a bacterial inoculum of 5×10^5 CFU (colony forming units)/mL of the relevant bacterium. Panels were read following 16 to 20 h of incubation at 35 degrees Celsius in ambient air. The MIC (minimum inhibitory concentration) was defined as the lowest concentration of antimicrobial inhibiting visible growth."}, "E. coli D22": {"tested_on": "E. coli D22", "assay": "MIC, NCCLS M7-A6 broth microdilution, E. coli D22", "type": "cell-based", "settings": "35 degrees Celsius; for MIC: Escherichia coli, D22, 16 to 20 h; for MIC E coli D22: 16 to 20 h", "description": "as §1"}}, "data": [{"smiles": "CCc1ccccc1-c1cc(-c2nnn[nH]2)sc1-c1ccccc1CC", "note": "[DNM0541, 5-(4,5-Bis(2-ethylphenyl)thiophen-2-yl)-1H-tetrazole]", "values": [{"measurement": "activity at 50 µM", "setting": "AcpS enzyme", "value": 63.1, "unit": "%"}, {"measurement": "remaining activity at 500 µM", "setting": "AcpS enzyme", "value": 0.3, "unit": "%"}, {"measurement": "MIC", "setting": "[1]", "value": 30, "unit": "µM"}, {"measurement": "MIC", "setting": "E. coli D22", "value": "> 125", "unit": "µM"}]}, {"smiles": "c1ccc2c(c1)oc1c(-c3cc(-c4nnn[nH]4)sc3-c3cccc4c3oc3ccccc34)cccc12", "note": "[DNM0542, 5-(4,5-Bis(dibenzo[b,d]furan-4-yl)thiophen-2-yl)-1H-tetrazole]", "values": [{"measurement": "activity at 50 µM", "setting": "AcpS enzyme", "value": 9.58, "unit": "%"}, {"measurement": "remaining activity at 500 µM", "setting": "AcpS enzyme", "value": 0.7, "unit": "%"}, {"measurement": "MIC", "setting": "[1]", "value": 2, "unit": "µM"}, {"measurement": "MIC", "setting": "E. coli D22", "value": "> 125", "unit": "µM"}]}, {"smiles": "CC(C)(C)c1ccc(-c2cc(-c3nnn[nH]3)sc2-c2ccc(C(C)(C)C)cc2)cc1", "note": "[DNM0546, 5-(4,5-Bis(4-tert-butylphenyl)thiophen-2-yl)-1H-tetrazole]", "values": [{"measurement": "activity at 50 µM", "setting": "AcpS enzyme", "value": 37.2, "unit": "%"}, {"measurement": "remaining activity at 500 µM", "setting": "AcpS enzyme", "value": 5.16, "unit": "%"}, {"measurement": "MIC", "setting": "[1]", "value": 4, "unit": "µM"}, {"measurement": "MIC", "setting": "E. coli D22", "value": "> 125", "unit": "µM"}]}, {"smiles": "FC(F)(F)c1ccccc1-c1cc(-c2nnn[nH]2)sc1-c1ccccc1C(F)(F)F", "note": "[DNM0549, 5-(4,5-Bis(2-(trifluoromethyl)phenyl)thiophen-2-yl)-1H-tetrazole]", "values": [{"measurement": "activity at 50 µM", "setting": "AcpS enzyme", "value": 71.3, "unit": "%"}, {"measurement": "remaining activity at 500 µM", "setting": "AcpS enzyme", "value": 0.48, "unit": "%"}, {"measurement": "MIC", "setting": "[1]", "value": 30, "unit": "µM"}, {"measurement": "MIC", "setting": "E. coli D22", "value": "> 125", "unit": "µM"}]}, {"smiles": "FC(F)(F)Oc1ccccc1-c1cc(-c2nnn[nH]2)sc1-c1ccccc1OC(F)(F)F", "note": "[DNM0550, 5-(4,5-Bis(2-(trifluoromethoxy)phenyl)thiophen-2-yl)-1H-tetrazole]", "values": [{"measurement": "activity at 50 µM", "setting": "AcpS enzyme", "value": 47.8, "unit": "%"}, {"measurement": "remaining activity at 500 µM", "setting": "AcpS enzyme", "value": 0.39, "unit": "%"}, {"measurement": "MIC", "setting": "[1]", "value": 30, "unit": "µM"}, {"measurement": "MIC", "setting": "E. coli D22", "value": "> 125", "unit": "µM"}]}, {"smiles": "c1ccc(-c2cc(-c3nnn[nH]3)sc2-c2ccccc2-c2ccsc2)c(-c2ccsc2)c1", "note": "[DNM0559, 5-(4,5-Bis(2-(thiophen-3-yl)phenyl)thiophen-2-yl)-1H-tetrazole]", "values": [{"measurement": "activity at 50 µM", "setting": "AcpS enzyme", "value": 7.01, "unit": "%"}, {"measurement": "remaining activity at 500 µM", "setting": "AcpS enzyme", "value": 0.5, "unit": "%"}, {"measurement": "MIC", "setting": "[1]", "value": 2, "unit": "µM"}, {"measurement": "MIC", "setting": "E. coli D22", "value": "> 125", "unit": "µM"}]}, {"smiles": "c1ccc(-c2cc(-c3nnn[nH]3)sc2-c2ccccc2-c2ccoc2)c(-c2ccoc2)c1", "note": "[DNM0560, 5-(4,5-Bis(2-(furan-3-yl)phenyl)thiophen-2-yl)-1H-tetrazole]", "values": [{"measurement": "activity at 50 µM", "setting": "AcpS enzyme", "value": 63.6, "unit": "%"}, {"measurement": "remaining activity at 500 µM", "setting": "AcpS enzyme", "value": 0.06, "unit": "%"}, {"measurement": "MIC", "setting": "[1]", "value": 15, "unit": "µM"}, {"measurement": "MIC", "setting": "E. coli D22", "value": "> 125", "unit": "µM"}]}, {"smiles": "Cc1ccc(-c2cc(-c3nnn[nH]3)sc2-c2ccc(C)cc2Cl)c(Cl)c1", "note": "[DNM0563, 5-(4,5-Bis(2-chloro-4-methylphenyl)thiophen-2-yl)-1H-tetrazole]", "values": [{"measurement": "activity at 50 µM", "setting": "AcpS enzyme", "value": 15.1, "unit": "%"}, {"measurement": "remaining activity at 500 µM", "setting": "AcpS enzyme", "value": 0.56, "unit": "%"}, {"measurement": "MIC", "setting": "[1]", "value": 8, "unit": "µM"}, {"measurement": "MIC", "setting": "E. coli D22", "value": 125, "unit": "µM"}]}, {"smiles": "COc1c(C)cc(-c2cc(-c3nnn[nH]3)sc2-c2cc(C)c(OC)c(C)c2)cc1C", "note": "[DNM0564, 5-(4,5-Bis(4-methoxy-3,5-dimethylphenyl)thiophen-2-yl)-1H-tetrazole]", "values": [{"measurement": "activity at 50 µM", "setting": "AcpS enzyme", "value": 47.6, "unit": "%"}, {"measurement": "remaining activity at 500 µM", "setting": "AcpS enzyme", "value": 0.75, "unit": "%"}, {"measurement": "MIC", "setting": "[1]", "value": 15, "unit": "µM"}, {"measurement": "MIC", "setting": "E. coli D22", "value": "> 125", "unit": "µM"}]}, {"smiles": "COc1ccc(-c2cc(-c3nnn[nH]3)sc2-c2ccc(OC)c(Cl)c2)cc1Cl", "note": "[DNM0565, 5-(4,5-Bis(3-chloro-4-methoxyphenyl)thiophen-2-yl)-1H-tetrazole]", "values": [{"measurement": "activity at 50 µM", "setting": "AcpS enzyme", "value": 22.9, "unit": "%"}, {"measurement": "remaining activity at 500 µM", "setting": "AcpS enzyme", "value": 0.11, "unit": "%"}, {"measurement": "MIC", "setting": "[1]", "value": 15, "unit": "µM"}, {"measurement": "MIC", "setting": "E. coli D22", "value": "> 125", "unit": "µM"}]}, {"smiles": "c1ccc(C2CC2)c(-c2cc(-c3nnn[nH]3)sc2-c2ccccc2C2CC2)c1", "note": "[DNM0570]", "values": [{"measurement": "% AcpS activity at 50 uM", "setting": "AcpS enzyme", "value": 33.7, "unit": "%"}, {"measurement": "% AcpS activity @ 500 uM", "setting": "AcpS enzyme", "value": 0.19, "unit": "%"}, {"measurement": "MIC MRSA", "setting": "[1]", "value": 15, "unit": "µM"}, {"measurement": "MIC E coli D22", "setting": "E. coli D22", "value": 125, "unit": "µM"}]}, {"smiles": "Brc1ccccc1-c1sc(-c2nnn[nH]2)cc1-c1ccccc1C1CCCC1", "note": "[DNM0571]", "values": [{"measurement": "% AcpS activity at 50 uM", "setting": "AcpS enzyme", "value": 8.19, "unit": "%"}, {"measurement": "% AcpS activity @ 500 uM", "setting": "AcpS enzyme", "value": 0.11, "unit": "%"}, {"measurement": "MIC MRSA", "setting": "[1]", "value": 8, "unit": "µM"}, {"measurement": "MIC E coli D22", "setting": "E. coli D22", "value": ">125", "unit": "µM"}]}, {"smiles": "Cc1ccc(-c2sc(-c3nnn[nH]3)cc2-c2ccc(Cl)cc2)c2ccccc12", "note": "[DNM0572, 5-(4-(4-Chlorophenyl)-5-(4-methylnaphthalen-1-yl)thiophen-2-yl)-1H-tetrazole]", "values": [{"measurement": "activity at 50 µM", "setting": "AcpS enzyme", "value": 4.41, "unit": "%"}, {"measurement": "remaining activity at 500 µM", "setting": "AcpS enzyme", "value": 0.51, "unit": "%"}, {"measurement": "MIC", "setting": "[1]", "value": 8, "unit": "µM"}, {"measurement": "MIC", "setting": "E. coli D22", "value": "> 125", "unit": "µM"}]}]}
